Consider five compounds from patent publication US11787782B2, “Combinations of a 4-pyrimidinesulfamide derivative with active ingredients for the treatment of endothelin related diseases” (IDORSIA PHARMACEUTICALS LTD, priority 2017, dated 2023).

For one series, the system named is male Wistar rats. Put plainly: Effect on fluid retention (haematocrit) in Wistar rats. The series is classed as in vivo, rat. To be noted: single oral dose 1-30 mg/kg, 24 hours after administration. How it is done:
A decrease in haematocrit (Hct) or haemoglobin occurs secondary to an increase in plasma volume and can be used as a marker of fluid retention. A single oral dose of aprocitentan (1-30 mg/kg) or vehicle (gelatin) was administered by gavage to male Wistar rats. Twenty-four hours after administration, sublingual blood was sampled under isoflurane-induced anesthesia. Haematocrit was measured using a hematology analyser.

The subject of series [1] is conscious, male hypertensive deoxycorticosterone acetate salt rats. Nature of the series: Chronic effects of repeated oral administration in DOCA-salt rats. The series is classed as in vivo, rat. The procedure: The chronic effects of repeated administrations of doses of 1, 10 and 100 mg/kg/day of ACT-132577, in particular mean arterial blood pressure (hereafter “MAP”), and heart rate (hereafter “HR”), were evaluated in conscious, male hypertensive deoxycorticosterone acetate salt rats (hereafter “DOCA-salt rats”-see details about this model in Gavras et al., Circ. Res. (1975), 36, 300-309). In the DOCA-salt rats, hypertension is induced by the combination of unilateral nephrectomy, implantation of pellets of the mineralocorticoid analog DOCA, and provision of 1% sodium chloride in drinking water. The results of the DOCA-salt rats treated with ACT-132577 were compared to those obtained for Wistar rats or for DOCA-salt rats that received only the vehicle (4% gelatin aquous solution).

Series [2] deals with conscious, male spontaneously hypertensive rats. Put plainly: Acute effects on MAP and HR by telemetry in spontaneously hypertensive rats. Format: in vivo, rat. The following applies: SHRs. How it is done:
The acute effects of ACT-132577 on blood pressure, in particular on mean arterial blood pressure (hereafter “MAP”), and heart rate (hereafter “HR”) were evaluated by means of telemetry in conscious, male spontaneously hypertensive rats (hereafter “SHRs”—see details about this model in Atanur et al., Genome Res. (2010), 20, 791-803). Groups of 4-6 SHRs were used for the vehicle (7.5% gelatin aquous solution) and each dose of ACT-132577 tested (1, 3, 10, 30, 100, and 300 mg/kg). Effects of ACT-132577 on HR and MAP were calculated for individual animals relative to the 24 h period before administering. The results obtained regarding MAP (maximal MAP decrease observed over 6 consecutive hours) are summarised in FIG. 11 (data are presented as mean±standard error of the mean). In summary, a dose of 100 mg/kg ACT-132577 decreased MAP by 18±4 mm Hg in SHRs. In contrast to MAP, HR was not affected.

For series [3], the system named is conscious, male hypertensive deoxycorticosterone acetate salt rats. Nature of the series: Acute effects on MAP and HR by telemetry in DOCA-salt rats. The series is classed as in vivo, rat. How it is done: The acute effects of ACT-132577 on blood pressure, in particular on mean arterial blood pressure (hereafter “MAP”), and heart rate (hereafter “HR”) were evaluated by means of telemetry in conscious, male hypertensive deoxycorticosterone acetate salt rats (hereafter “DOCA-salt rats”—see details about this model in Gavras et al., Circ. Res. (1975), 36, 300-309). In the DOCA-salt rats, hypertension is induced by the combination of unilateral nephrectomy, implantation of pellets of the mineralocorticoid analog DOCA, and provision of 1% sodium chloride in drinking water. Groups of 6-11 DOCA-salt rats were used for the vehicle (7.5% gelatin aquous solution) and each dose of ACT-132577 tested (0.3, 1, 3, 10, 30, 100, and 300 mg/kg). Effects of ACT-132577 on HR and MAP were calculated for individual animals relative to the 24 h period before administering. The results obtained regarding MAP (maximal MAP decrease observed over 6 consecutive hours) are summarised in FIG. 10 (data are presented as mean±standard error of the mean). In summary, a dose of 10 mg/kg ACT-132577 decreased MAP by 29±6 mm Hg in DOCA-salt rats. In contrast to MAP, HR was not affected.

The conditions of series [4]: in comparison to corresponding alkylated derivatives; cited from earlier work.
In series [5] the test system is conscious, male hypertensive Dahl salt-sensitive rats. Nature of the series: Acute effects on MAP and HR by telemetry in Dahl salt-sensitive rats. The series is classed as in vivo, rat. To be noted: Dahl-S rats. How it is done: The acute effects of ACT-132577 on blood pressure, in particular on mean arterial blood pressure (hereafter “MAP”), and heart rate (hereafter “HR”) were evaluated by means of telemetry in conscious, male hypertensive Dahl salt-sensitive rats (hereafter “Dahl-S rats”—see details about this model in Rapp, Hypertension (1982), 4, 753-763). Elevated blood pressure is induced in Dahl-S rats by providing 1% sodium chloride in drinking water. Groups of 6-7 Dahl-S rats were used for the vehicle (7.5% gelatin aqeuous solution) and each dose of ACT-132577 tested (0.3, 1, 3, 10, 30, 100, and 300 mg/kg). Effects of ACT-132577 on HR and MAP were calculated for individual animals relative to the 24 h period before administering. The results obtained regarding MAP (maximal MAP decrease observed over 6 consecutive hours) are summarised in FIG. 9 (data are presented as mean±standard error of the mean). In summary, a dose of 10 mg/kg ACT-132577 decreased MAP by 19±4 mm Hg in Dahl-S rats. In contrast to MAP, HR was not affected.

Series [6] concerns conscious, male hypertensive deoxycorticosterone acetate salt rats. Nature of the series: Acute effects on top of Exforge HCT in DOCA-salt rats (telemetry). Format: in vivo, rat. The following applies: for Blood pressure when added on top of Exforge HCT: aprocitentan 10 mg/kg or spironolactone 300 mg/kg oral, Exforge HCT 3.2/0.2/0.5 mg/kg. From the text: Res. (1975), 36, 300-309). In the DOCA-salt rats, hypertension is induced by the combination of unilateral nephrectomy, implantation of pellets of the mineralocorticoid analog DOCA, and provision of 1% sodium chloride in drinking water. 7-9 DOCA-salt rats per treatment group were used for this test. The results obtained regarding MAP are summarised in FIGS. 21 and 22 wherein each data point is presented as a 6-hour mean.

The test system of series [7] is conscious, male spontaneously hypertensive rats. Put plainly: Acute effects on top of Exforge HCT in SHRs (telemetry). Format: in vivo, rat. The following applies: for Blood pressure when added on top of Exforge HCT: aprocitentan 100 mg/kg or spironolactone 300 mg/kg oral, Exforge HCT 1.6/0.1/0.25 mg/kg. The procedure:
The acute effects of Exforge HCT® (i.e. a fixed dose combination of valsartan/amlodipine/hydrochlorothiazide; dosage adapted for 1.6 mg/kg/0.1 mg/kg/0.25 mg/kg for valsartan/amlodipine/hydrochlorothiazide, respectively) on blood pressure, in particular on mean arterial blood pressure (hereafter “MAP”), and heart rate (hereafter “HR”) in combination with ACT-132577 or spironolactone were also evaluated by means of telemetry in conscious, male spontaneously hypertensive rats (hereafter “SHRs”-see details about this model in Atanur et al., Genome Res. (2010), 20, 791-803).
9 SHRs per treatment group were used for this test. To match the maximal effect on blood pressure of co-administered drug in this model, aprocitentan 100 mg/kg was administrated orally on the 3rd day following 3-day oral administration of Exforge HCT® mg/kg and spironolactone 300 mg/kg was co-administered orally with Exforge HCT® on the 1st day followed by 2 days of Exforge HCT® administration. The results obtained regarding MAP are summarised in FIGS. 19 and 20 wherein each data point is presented as a 6-hour mean.

The next series deals with patients with rHT. The following applies: 14 week phase 3 trial, cited from earlier work.
Series [8] can be described thus: Storage at room temperature (crystal form stability, XRPD and HPLC control). To be noted: 20-25° C. Format: physicochemical. How it is done: All XRPD patterns for the solid forms described herein have been obtained as described hereafter. X-ray powder diffraction patterns were collected on a Bruker D8 Advance X-ray diffractometer equipped with a Lynxeye detector operated with CuKα-radiation in reflection mode (coupled two Theta/Theta). Typically, the X-ray tube was run at of 40 kV/40 mA. A step size of 0.02° (2θ) and a step time of 76.8 sec over a scanning range of 3-50° in 2θ were applied. The divergence slit was set to fixed 0.3. Powders were slightly pressed into a silicon single crystal sample holder with depth of 0.5 mm and samples were rotated in their own plane during the measurement. Diffraction data are reported using combined Cu Kα1 and Kα2 radiation, without Kα2 stripping. The accuracy of the 2θ values as provided herein is in the range of +/−0.1-0.2° as it is generally the case for conventionally recorded X-ray powder diffraction patterns. A sample of Form A crystals of the COMPOUND (as obtained according to Example 1 above) has been stored at a temperature of 20-25° C. at 92% relative humidity for 2 months. […] The same result was obtained after storage for 8 weeks under the above conditions. […] A sample of Form B crystals of a dichloromethane solvate of the COMPOUND (as obtained according to Example 2 above) has been stored in a closed vial ([…] of Form B crystals being placed in a closed 4 mL vial) at a temperature of 20-25° C. for about 3 weeks. […] A sample of Form K crystals of a dimethylsulfoxide solvate of the COMPOUND (as obtained according to Example 7 above) has been stored in a closed vial ([…] of Form K crystals being placed in a closed 4 mL vial) at a temperature of 20-25° C. for about 3 weeks.

The nature of series [9]: Hygroscopicity by gravimetric vapor sorption (GVS). The series is classed as physicochemical. From the text: Mass increase of a sample as obtained according to Example 1 in the first cycle from 40% r.h. to 80% r.h. corresponds to 0.4%. At 95% r.h. 2.2% moisture were taken up in a reversible way without hysteresis upon drying.
Setting [10] is: DOCA-salt rats, 1, 10 and 100 mg/kg/day oral for 4 weeks.
The mark [11] stands for this setting: DOCA-salt rats, chronic oral administration.
Setting [12] is: 10 mg/kg, mean±standard error of the mean.

For `NS(=O)(=O)Nc1ncnc(OCCOc2ncc(Br)cn2)c1-c1ccc(Br)cc1` [ACT-132577, {5-(4-bromo-phenyl)-6-[2-(5-bromo-pyrimidin-2-yloxy)-ethoxy]-pyrimidin-4-yl}-sulfamide], the “Haematocrit (Hct), marker of fluid retention” value with male Wistar rats is listed as “did not impact on haematocrit”. The “DOCA-salt-induced increase in MAP” value in series [1] (setting [10]) is listed as “dose-dependently attenuated the DOCA-salt-induced increase in MAP”. Further, the “Heart rate (HR)” value in [1] (setting [10]) was “without changing HR”; in series [2] (doses 1-300 mg/kg), “not affected”; in series [3] (doses 0.3-300 mg/kg) it was “not affected”; in series [5] (doses 0.3-300 mg/kg), “not affected”. Also, in series [1] (setting [11]), the Left ventricular hypertrophy result is “tended to decrease left ventricular hypertrophy”. Further, in series [1] (setting [11]), the “Plasma concentrations of N-terminal pro-brain natriuretic peptide (NTproBNP)” value was “dose-dependent decrease”. Also, the Renal blood flow result in series [1] (setting [11]) is “dose-dependently increased renal blood flow”. For the same compound, in series [1] (setting [11]), the Renal vascular resistance result is given as “decreased renal vascular resistance”. Further, the “MAP decrease (maximal decrease over 6 consecutive hours)” value was found to be 18±4 mm Hg in series [2] (100 mg/kg, mean±standard error of the mean); 29±6 mm Hg in series [3] (setting [12]); 19±4 mm Hg in series [5] (setting [12]). For the same compound, in [4], the Clearance in vivo entry is “much shorter clearance”. Besides, the Half-life in vivo entry in [4] is “much longer half-life”. Moreover, the “Blood pressure when added on top of Exforge HCT” value in [6] and in series [7] was “further reduced blood pressure” each time. Further, the “Blood pressure reduction compared with spironolactone, on top of Exforge HCT” value in series [6] (aprocitentan 10 mg/kg vs spironolactone 300 mg/kg) and in [7] (aprocitentan 100 mg/kg vs spironolactone 300 mg/kg) was “greater blood pressure reduction than spironolactone” each time.

As to `COc1cc(OC)nc(O[C@H](C(=O)O)C(OC)(c2ccccc2)c2ccccc2)n1` [darusentan], in the series on patients with rHT (12% in each of the other groups), the “Fluid retention/edema (most frequent adverse event)” value is 28%. In addition, in the series on patients with rHT, the “Primary endpoint systolic blood pressure” value was “failed to show significant treatment effect” and the “Reduction of ambulatory blood pressure” value was “demonstrated efficacy”.

`NS(=O)(=O)Nc1ncnc(OCCOc2ncc(Br)cn2)c1-c1ccc(Br)cc1` [Form A, {5-(4-bromo-phenyl)-6-[2-(5-bromo-pyrimidin-2-yloxy)-ethoxy]-pyrimidin-4-yl}-sulfamide]: the “Crystal form by X-ray powder diffraction after storage” value in [8] (92% relative humidity, 2 months) is on record as “still consisting only in Form A crystals”; in series [8] (92% relative humidity, 8 weeks), “same result”. Further, in [8] (92% relative humidity, 8 weeks), the “HPLC control after storage (change in peak area %, degradation)” value is “no significant degradation”. In series [9] (at 95% r.h., reversible, without hysteresis upon drying), this compound gave a Moisture taken up of 2.2%. The compound further showed a Mass increase in series [9] (first cycle from 40% r.h. to 80% r.h.) of 0.4%. The “Hygroscopicity (GVS)” value in [9] (sample obtained according to Example 1) is given as “slightly hygroscopic”.

With `NS(=O)(=O)Nc1ncnc(OCCOc2ncc(Br)cn2)c1-c1ccc(Br)cc1` [Form B, {5-(4-bromo-phenyl)-6-[2-(5-bromo-pyrimidin-2-yloxy)-ethoxy]-pyrimidin-4-yl}-sulfamide], in series [8] (closed 4 mL vial, about 3 weeks), the “Crystal form by X-ray powder diffraction after storage in a closed vial” value is given as “transformed into Form A crystals”.

With `CC(=O)S[C@@H]1CC2=CC(=O)CC[C@]2(C)[C@H]2CC[C@@]3(C)[C@@H](CC[C@@]34CCC(=O)O4)[C@H]12` [spironolactone, reference compound], the “Blood pressure when added on top of Exforge HCT” value in [6] and in [7] was “further reduced blood pressure” in each case.
